Measurements published in BigSolDB 2.1.

O=C(Nc1ccccc1)c1ccccc1O
solubility (mole fraction)
Details | 283.15 K | 288.15 K | 293.15 K | 298.15 K | 303.15 K | 308.15 K | 313.15 K | 318.15 K | 323.15 K
in acetonitrile | 0.0129 | 0.0153 | 0.0181 | 0.0217 | 0.0258 | 0.0307 | 0.0359 | 0.0423 | 0.0485
in ethanol | 0.0185 | 0.0207 | 0.0235 | 0.0273 | 0.0322 | 0.0366 | 0.0425 | 0.0487 | 0.0572
in ethyl acetate | 0.0344 | 0.039 | 0.0432 | 0.0486 | 0.0554 | 0.0635 | 0.0709 | 0.0808 | 0.0892
in ethyl formate | 0.0195 | 0.0219 | 0.0248 | 0.0293 | 0.0334 | 0.041 | 0.0488 | 0.0585 | 0.0681
in isopropanol | 0.0169 | 0.0199 | 0.0225 | 0.0265 | 0.0315 | 0.036 | 0.041 | 0.0473 | 0.053
in isopropyl acetate | 0.0281 | 0.031 | 0.0352 | 0.0389 | 0.0439 | 0.0502 | 0.0567 | 0.0638 | 0.0709
in methyl acetate | 0.0366 | 0.0408 | 0.0443 | 0.05 | 0.0568 | 0.0658 | 0.0766 | 0.0879 | 0.101
in n-butanol | 0.013 | 0.0155 | 0.0178 | 0.021 | 0.0247 | 0.0292 | 0.0346 | 0.0403 | 0.0467
in n-butyl acetate | 0.028 | 0.0311 | 0.0349 | 0.0388 | 0.0435 | 0.049 | 0.0545 | 0.061 | 0.0686
in n-pentanol | 0.014 | 0.0157 | 0.0181 | 0.0206 | 0.0238 | 0.0281 | 0.0338 | 0.0396 | 0.0459
in n-propanol | 0.0134 | 0.0168 | 0.0199 | 0.0229 | 0.0266 | 0.0314 | 0.0363 | 0.0418 | 0.0479
in n-propyl acetate | 0.0303 | 0.0347 | 0.0378 | 0.0435 | 0.0483 | 0.0542 | 0.0616 | 0.0703 | 0.0796
